Broadly, the melting point is the temperature of the solid-liquid transition. `CC(C)(C)[Si](C)(C)OCCCC(=O)c1cc(-c2ccc(S(N)(=O)=O)cc2)n(C2CCCCC2)n1` showed a melting point of 151 to 153 °C.
On to `Cc1cc(=O)c(C(=O)Nc2cccc(C)c2C)c(C)o1`, for which the melting point was in the range of 174 to 176 °C.
In the case of `COc1nn(CC(C)=O)c(=O)s1` it was 66 to 67 °C; in that of `COC(=O)c1ccc(OC(=O)c2ccccc2)cc1OC`, 91 °C; in that of `O=C(O)Cc1csc(-c2cccc(O)c2)n1`, 172 to 174 °C.
Consider `CCOc1nc(N2CCSCC2)nc(Cl)c1[N+](=O)[O-]`, for which the melting point was in the range of 149 to 150 °C.
Next, `CC(=O)NC1CCN(CCCOc2ccc3c4c(c(=O)oc3c2)CCCC4)CC1`: 90 to 92 °C; `Cc1cc(C)nc(NC(=O)NS(=O)(=O)c2ccccc2OCCO)n1`: 183 to 190 °C.
In the case of `CC(C)(C)C1=CC(=Nc2ccc(CC#N)cc2)C=C(C(C)(C)C)C1=O` it was 126 to 128 °C; in that of `COc1ccc(C2COc3cc(OC(=O)C(C)(C)C)ccc3C2(O)Cc2ccc(OCc3ccccc3)cc2)cc1` (stereo not drawn), 104 to 111 °C.
In the case of `COC(=O)CCCN(C(=O)C(C)N(C(C)=O)c1ccc(OC)cc1)c1ccc(OC)cc1` (stereo not drawn) it was 111 to 113 °C; in that of `NC(Cc1cc(CP(=O)(O)O)cc(-c2ccc(Cl)cc2)c1)C(=O)OCC=Cc1ccccc1` (stereo not drawn), 253 to 255 °C.
`O=C(Nc1ccc(Cl)cc1)c1ccccc1Cl` returned a melting point of 93.7 to 95.1 °C.
Next, `CCOC(=O)CSc1nc2cc([N+](=O)[O-])ccc2[nH]1`: 114 °C.
Next, `CCOC(=O)C(=Cc1ccc(OC)cc1OC)C(=O)OCC`: 40 to 41 °C; `COc1cccc2ccc(Cl)nc12`: 90 to 92 °C.
`COc1ccc(C2CC[N+]([O-])(CCC3CCOc4ccccc43)CC2)cc1OC` (stereo not drawn): the melting point came out at 97 °C.
Next, `OCC=Cc1ccc(-c2ccc(OC(F)(F)F)cc2)cc1`: 121 to 123 °C.
For the molecule `CNC(=O)Oc1ccccc1Cl`, the melting point is 90 to 91 °C.
`CCN1C(=O)N(c2c(F)c(OC)cc(OC)c2F)Cc2cnc(SC)nc21`: the melting point is 165 to 168 °C.
In the case of `COC(=O)C(Cc1ccccc1)Oc1ccc2cc(-c3csc(-c4ccccc4)n3)ccc2c1Br` (stereo not drawn) it was 96 to 101 °C; in that of `O=C(O)c1cccnc1Cc1ccccc1`, 180 to 182 °C.
Next, `CNC(=O)c1cc2nc(C)c(C)nc2c(Cl)c1NC(=O)c1cc(C(F)(F)F)nn1-c1ncccc1Cl`: 221 to 224 °C; `CN(c1cccc2cc(C3=NCC(CC(=O)NS(C)(=O)=O)S3)[nH]c12)S(=O)(=O)c1cccs1` (stereo not drawn): 141 °C.
In the case of `Cc1ccc(-n2c3ccccc3c3cc(C(C#N)=C(C#N)C#N)ccc32)cc1` it was 233 to 234 °C; in that of `Cc1cc2c(-c3ccccc3)nc(N3CCN(CC(=O)c4ccc(F)cc4)CC3)nc2s1`, 141 to 142 °C.
On to `O=S(=O)(c1ccccc1)n1ccnc1`, for which the melting point fell in the range of 82 to 83 °C.
In the case of `Cc1ccccc1-c1ccn(C(C)(C)C(=O)N(C)C)n1`, the melting point lay in the range of 78.5 to 81 °C.
The molecule `O=C(O)c1ccnc(-c2cccc3cc(Cc4cc(F)cc(Cl)c4)sc23)c1` yielded a melting point of 205 to 206 °C.
Next, `NCC1Cc2cc(Cl)cc(-c3cc(Cl)ccc3Cl)c2O1` (stereo not drawn): 160 to 162 °C; `O=C1SC(Cc2ccc(OCCn3ccc4ccccc43)cc2)C(=O)N1C(c1ccccc1)(c1ccccc1)c1ccccc1` (stereo not drawn): 63.5 to 65.9 °C.
Next, `Cc1noc(NS(=O)(=O)c2cccc(-c3ccccc3)c2)c1Cl`: 84 to 86 °C; `CCOC(=O)C(NC(C)=O)(C(=O)OCC)C1=Nc2ccc(Cl)cc2C(c2ccccc2Cl)=NC1`: 153 to 155 °C; `COc1cc2c(cc1OC)C(c1ccccc1)N(C(=O)NCCN(C(C)C)C(C)C)CC2` (stereo not drawn): 109 to 110 °C.
In the case of `O=S(=O)(c1ccc(O)cc1)c1ccc(Cl)cc1` it was 143 to 145 °C.
The molecule `O=[N+]([O-])c1ccc2sc(CCl)cc2c1` registered a melting point of 110 to 112 °C.
In the case of `NC(=O)c1ccc(C(O)c2c(O)c(=O)ccn2CCO)cc1` (stereo not drawn) it was 215 to 216 °C; in that of `COc1cc(CCc2c(/C=C/[N+](=O)[O-])ccc(OC)c2OC)cc(OC)c1`, 95 to 96 °C.
Next, `Cc1cc(Cl)nc(SCC#N)n1`: 62 to 65 °C; `COc1ccc2nccc(NC(=O)N3CCN(CC(=O)c4cnc5ccccc5n4)CC3)c2n1`: 167 to 169 °C; `O=C1Cn2cncc2CN1Cc1ccc(F)cc1`: 112 to 114 °C.
`COc1cc2c(Cl)c(C#N)cnc2cc1OCC1CCN(C)CC1` registered a melting point of 166 to 168 °C.
Next, `O=Cc1ccc(-c2ncc(Cl)cn2)cc1`: 186 °C; `CC(C)=C(C#N)C(=O)OC(COc1ccc(C(=O)c2ccccc2)c(O)c1)COc1ccc(C(=O)c2ccccc2)c(O)c1`: 145 to 147 °C; `CN1CCN(Cc2ccc(-c3cc4ncnc(Nc5ccc6[nH]ccc6c5)c4s3)cc2)CC1`: 143 to 150 °C.
Next, `COc1ccc2c3cc(C(=O)NCCc4ccc(Cl)cc4)ccc3n(CC3CCCCC3)c2c1`: 179 to 181 °C; `OC1Cc2c(Cl)cccc2Sc2ccc(C(F)(F)F)cc21` (stereo not drawn): 130 to 132 °C; `COC(=O)c1csc(CCCc2cc3c(=O)[nH]c(N)nc3[nH]2)c1`: 182 to 183 °C.
Next, `CCc1ccc(S(=O)(=O)O)cc1`: 45.1 to 46.5 °C; `COc1ccc2c(c1CC=C(C)C)OC(c1ccc(O)cc1O)CC2` (stereo not drawn): 95 to 96 °C.
The molecule `O=C1c2ccccc2-c2c1c(Cl)nc1ccc(Br)cc21` had a melting point of 304 to 306 °C.
Consider `CC(C)(C)OC(=O)C(C#N)C(c1cccc2ccccc12)c1cccc2ccccc12` (stereo not drawn), for which the melting point was in the range of 156 to 157 °C.
Next, `O=C(c1ccccc1)N1CCNc2ncc(-c3cccnc3)cc21`: 219 to 220 °C; `Cc1nc2c(N)nc3ccccc3c2s1`: 184 to 187 °C.
Next, `Nc1ccc(S(=O)(=O)CCO)cc1C(=O)O`: 164 to 167 °C; `CCCc1nc2cccc(C(=S)OC)c2n1Cc1ccc(-c2ccccc2)c(-c2nc(=O)o[nH]2)c1`: 220 to 221 °C; `CCOC(=O)NNC(=S)NC`: 117 °C.
In turn, `COc1cc2c(c(OC)c1)C1CCC3(C)C(OC(C)=O)CCC3C1CC2` (stereo not drawn) gave a melting point of 131 to 134 °C.
In turn, `O=C(C=Cc1ccccc1)N1CCc2c([nH]c3ccccc23)C1c1ccc2c(c1)CCC2` (stereo not drawn) gave a melting point of 223 °C.
In the case of `Cc1cc(C2(C(F)(F)F)CC(c3ccc(Cl)cc3)=NO2)ccc1N` (stereo not drawn) it was 118 to 119 °C.
In the case of `COc1ccc(C2CC(c3cccc(OC)c3)=NN2c2ccc(C(=O)O)cc2)cc1` (stereo not drawn) it was 142 °C.
The molecule `CCOCN1C(C)=C(C(=O)OC)C(c2cccc([N+](=O)[O-])c2)C(C(=O)OCCBr)=C1C` (stereo not drawn) returned a melting point of 72.5 to 74 °C.
Next, `O=C(NNC(=O)c1occ(-c2ccccc2)c1-c1ccccc1)c1ccsc1`: 195 to 197 °C.
